Test results as given in the supplement of paper PMC5908809.

Experiments:
[1] = test system: normal NK cells expanded with K562-aAPC; test: percent inhibition of viability; higher = more inhibition; conditions: 72 h, IL-2 2.5 ng/mL
Experimental: (§1)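 Drug sensitivity and resistance testing on K562-aAPC-expanded normal NK cells: 5 concentrations (10-fold steps over a 10,000-fold range), 72 h at 37 °C, viability by CellTiter-Glo normalised to DMSO and benzethonium chloride controls; DSS from the fitted curve.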

[2] = test system: DERL-7 (IL-2 2.5 ng/mL); test: as above; conditions: 72 h
[3] = test system: IMC-1 (IL-2 20 ng/mL); test: as above; conditions: 72 h
[4] = test system: KAI3 (IL-2 2.5 ng/mL); test: as above; conditions: 72 h
[5] = test system: KHYG-1 (IL-2 2.5 ng/mL); test: as above; conditions: 72 h
[6] = test system: NK-92 (IL-2 2.5 ng/mL); test: as above; conditions: 72 h
[7] = test system: NK-YS (IL-2 2.5 ng/mL); test: as above; conditions: 72 h
[8] = test system: NKL (IL-2 2.5 ng/mL); test: as above; conditions: 72 h
[9] = test system: SNK-6 (IL-2 2.5 ng/mL); test: as above; conditions: 72 h
[10] = test system: YT (IL-2 2.5 ng/mL); test: as above; conditions: 72 h
[11] = test system: normal primary NK cells, pool 1 (3 donors) (IL-2 2.5 ng/mL); test: as above; conditions: 72 h
[12] = test system: normal primary NK cells, pool 1 (3 donors), resting (IL-2 0 ng/mL); test: as above; conditions: 72 h
[13] = test system: normal primary NK cells, pool 2 (3 donors) (IL-2 2.5 ng/mL); test: as above; conditions: 72 h
[14] = test system: normal primary NK cells, pool 3 (3 donors) (IL-2 2.5 ng/mL); test: as above; conditions: 72 h
[15] = test system: normal NK cells expanded with K562-aAPC; test: drug sensitivity score (DSS) (DSS units); higher = more sensitive; extreme values may be limits of the assay; conditions: 72 h; IL-2 2.5 ng/mL
Experimental: as §1

[16] = test system: DERL-7 (IL-2 2.5 ng/mL); test: as above; conditions: 72 h
[17] = test system: IMC-1 (IL-2 20 ng/mL); test: as above; conditions: 72 h
[18] = test system: KAI3 (IL-2 2.5 ng/mL); test: as above; conditions: 72 h
[19] = test system: KHYG-1 (IL-2 2.5 ng/mL); test: as above; conditions: 72 h
[20] = test system: NK-92 (IL-2 2.5 ng/mL); test: as above; conditions: 72 h
[21] = test system: NK-YS (IL-2 2.5 ng/mL); test: as above; conditions: 72 h
[22] = test system: NKL (IL-2 2.5 ng/mL); test: as above; conditions: 72 h
[23] = test system: SNK-6 (IL-2 2.5 ng/mL); test: as above; conditions: 72 h
[24] = test system: YT (IL-2 2.5 ng/mL); test: as above; conditions: 72 h
[25] = test system: normal primary NK cells, pool 1 (3 donors) (IL-2 2.5 ng/mL); test: as above; conditions: 72 h
[26] = test system: normal primary NK cells, pool 1 (3 donors), resting (IL-2 0 ng/mL); test: as above; conditions: 72 h
[27] = test system: normal primary NK cells, pool 2 (3 donors) (IL-2 2.5 ng/mL); test: as above; conditions: 72 h
[28] = test system: normal primary NK cells, pool 3 (3 donors) (IL-2 2.5 ng/mL); test: as above; conditions: 72 h

CNC(=O)c1ccc(N2C(=S)N(c3ccc(C#N)c(C(F)(F)F)c3)C(=O)C23CCC3)cc1F [RD162] (max concentration tested 10000 nM)
percent inhibition of viability ([1]; 1 nM): -8.24%
percent inhibition of viability ([1]; 10 nM): -9.67%
percent inhibition of viability ([1]; 100 nM): -4.97%
percent inhibition of viability ([1]; 1000 nM): 7.5%
percent inhibition of viability ([1]; 10000 nM): 1.43%
percent inhibition of viability ([2]; 1 nM): 2.54%
percent inhibition of viability ([2]; 10 nM): -3.32%
percent inhibition of viability ([2]; 100 nM): -8.09%
percent inhibition of viability ([2]; 1000 nM): -8.58%
percent inhibition of viability ([2]; 10000 nM): -5.45%
percent inhibition of viability ([3]; 1 nM): -5.69%
percent inhibition of viability ([3]; 10 nM): -2.87%
percent inhibition of viability ([3]; 100 nM): -1.68%
percent inhibition of viability ([3]; 1000 nM): 2.9%
percent inhibition of viability ([3]; 10000 nM): 17.6%
percent inhibition of viability ([4]; 1 nM): -2.44%
percent inhibition of viability ([4]; 10 nM): -0.44%
percent inhibition of viability ([4]; 100 nM): 1.83%
percent inhibition of viability ([4]; 1000 nM): 0.32%
percent inhibition of viability ([4]; 10000 nM): 18.6%
percent inhibition of viability ([5]; 1 nM): -6.85%
percent inhibition of viability ([5]; 10 nM): -6.64%
percent inhibition of viability ([5]; 100 nM): -5.8%
percent inhibition of viability ([5]; 1000 nM): 2.74%
percent inhibition of viability ([5]; 10000 nM): 10.4%
percent inhibition of viability ([6]; 1 nM): -11.3%
percent inhibition of viability ([6]; 10 nM): 5.25%
percent inhibition of viability ([6]; 100 nM): -15.2%
percent inhibition of viability ([6]; 1000 nM): -0.07%
percent inhibition of viability ([6]; 10000 nM): 33.8%
percent inhibition of viability ([7]; 1 nM): -12.1%
percent inhibition of viability ([7]; 10 nM): -6.94%
percent inhibition of viability ([7]; 100 nM): -9.33%
percent inhibition of viability ([7]; 1000 nM): 1.8%
percent inhibition of viability ([7]; 10000 nM): 16.9%
percent inhibition of viability ([8]; 1 nM): -11.3%
percent inhibition of viability ([8]; 10 nM): -5.72%
percent inhibition of viability ([8]; 100 nM): -0.58%
percent inhibition of viability ([8]; 1000 nM): 7.33%
percent inhibition of viability ([8]; 10000 nM): 23.9%
percent inhibition of viability ([9]; 1 nM): -1.99%
percent inhibition of viability ([9]; 10 nM): -21.8%
percent inhibition of viability ([9]; 100 nM): 2.57%
percent inhibition of viability ([9]; 1000 nM): -8.56%
percent inhibition of viability ([9]; 10000 nM): 1.37%
percent inhibition of viability ([10]; 1 nM): -8.11%
percent inhibition of viability ([10]; 10 nM): -4.09%
percent inhibition of viability ([10]; 100 nM): -6.39%
percent inhibition of viability ([10]; 1000 nM): 3.85%
percent inhibition of viability ([10]; 10000 nM): 24.7%
percent inhibition of viability ([11]; 1 nM): -2.22%
percent inhibition of viability ([11]; 10 nM): 4.97%
percent inhibition of viability ([11]; 100 nM): 8.69%
percent inhibition of viability ([11]; 1000 nM): 3.69%
percent inhibition of viability ([11]; 10000 nM): 20.8%
percent inhibition of viability ([12]; 1 nM): 1.38%
percent inhibition of viability ([12]; 10 nM): 18.7%
percent inhibition of viability ([12]; 100 nM): 13.6%
percent inhibition of viability ([12]; 1000 nM): 12.9%
percent inhibition of viability ([12]; 10000 nM): 40.5%
percent inhibition of viability ([13]; 1 nM): -7.24%
percent inhibition of viability ([13]; 10 nM): -1.28%
percent inhibition of viability ([13]; 100 nM): 0.84%
percent inhibition of viability ([13]; 1000 nM): 3.39%
percent inhibition of viability ([13]; 10000 nM): 11.3%
percent inhibition of viability ([14]; 1 nM): -4.05%
percent inhibition of viability ([14]; 10 nM): -1.08%
percent inhibition of viability ([14]; 100 nM): 1.71%
percent inhibition of viability ([14]; 1000 nM): -2.99%
percent inhibition of viability ([14]; 10000 nM): 3.64%
drug sensitivity score [15]: 0
drug sensitivity score [16]: 0
drug sensitivity score [17]: 0.76
drug sensitivity score [18]: 0.52
drug sensitivity score [19]: 0.01
drug sensitivity score [20]: 1.56
drug sensitivity score [21]: 0.56
drug sensitivity score [22]: 1.84
drug sensitivity score [23]: 0
drug sensitivity score [24]: 1.51
drug sensitivity score [25]: 0.72
drug sensitivity score [26]: 5.08
drug sensitivity score [27]: 0.09
drug sensitivity score [28]: 0

Cc1nc(NC(=O)N2CCC[C@H]2C(N)=O)sc1-c1ccnc(C(C)(C)C(F)(F)F)c1 [Alpelisib] (max concentration tested 2500 nM)
percent inhibition of viability ([1]; 0.25 nM): 0.72%
percent inhibition of viability ([1]; 2.5 nM): 1.85%
percent inhibition of viability ([1]; 25 nM): -0.5%
percent inhibition of viability ([1]; 250 nM): 3.19%
percent inhibition of viability ([1]; 2500 nM): 30.6%
percent inhibition of viability ([2]; 0.25 nM): -4.58%
percent inhibition of viability ([2]; 2.5 nM): -9.56%
percent inhibition of viability ([2]; 25 nM): -0.97%
percent inhibition of viability ([2]; 250 nM): -2.79%
percent inhibition of viability ([2]; 2500 nM): 25.6%
percent inhibition of viability ([3]; 0.25 nM): 3.85%
percent inhibition of viability ([3]; 2.5 nM): 3.43%
percent inhibition of viability ([3]; 25 nM): 5.77%
percent inhibition of viability ([3]; 250 nM): 4.62%
percent inhibition of viability ([3]; 2500 nM): 5.3%
percent inhibition of viability ([4]; 0.25 nM): 6.58%
percent inhibition of viability ([4]; 2.5 nM): 6.32%
percent inhibition of viability ([4]; 25 nM): 4.01%
percent inhibition of viability ([4]; 250 nM): 8.23%
percent inhibition of viability ([4]; 2500 nM): 30.4%
percent inhibition of viability ([5]; 0.25 nM): -0.82%
percent inhibition of viability ([5]; 2.5 nM): 0.62%
percent inhibition of viability ([5]; 25 nM): 4.26%
percent inhibition of viability ([5]; 250 nM): 2.48%
percent inhibition of viability ([5]; 2500 nM): 8.78%
percent inhibition of viability ([6]; 0.25 nM): -1.19%
percent inhibition of viability ([6]; 2.5 nM): 0.59%
percent inhibition of viability ([6]; 25 nM): 11.2%
percent inhibition of viability ([6]; 250 nM): 7.16%
percent inhibition of viability ([6]; 2500 nM): 16.2%
percent inhibition of viability ([7]; 0.25 nM): -0.06%
percent inhibition of viability ([7]; 2.5 nM): -1.74%
percent inhibition of viability ([7]; 25 nM): 4.37%
percent inhibition of viability ([7]; 250 nM): 2.5%
percent inhibition of viability ([7]; 2500 nM): 12.7%
percent inhibition of viability ([8]; 0.25 nM): -4.18%
percent inhibition of viability ([8]; 2.5 nM): 0.03%
percent inhibition of viability ([8]; 25 nM): 10.1%
percent inhibition of viability ([8]; 250 nM): 5.23%
percent inhibition of viability ([8]; 2500 nM): 12.8%
percent inhibition of viability ([9]; 0.25 nM): -6.11%
percent inhibition of viability ([9]; 2.5 nM): 8.58%
percent inhibition of viability ([9]; 25 nM): 10.5%
percent inhibition of viability ([9]; 250 nM): 15.4%
percent inhibition of viability ([9]; 2500 nM): 29%
percent inhibition of viability ([10]; 0.25 nM): -0.82%
percent inhibition of viability ([10]; 2.5 nM): 0.14%
percent inhibition of viability ([10]; 25 nM): 1.96%
percent inhibition of viability ([10]; 250 nM): 2.35%
percent inhibition of viability ([10]; 2500 nM): 13%
percent inhibition of viability ([11]; 0.25 nM): -6.99%
percent inhibition of viability ([11]; 2.5 nM): -1.42%
percent inhibition of viability ([11]; 25 nM): -4.27%
percent inhibition of viability ([11]; 250 nM): 3.43%
percent inhibition of viability ([11]; 2500 nM): 6.48%
percent inhibition of viability ([12]; 0.25 nM): -10.5%
percent inhibition of viability ([12]; 2.5 nM): 5.01%
percent inhibition of viability ([12]; 25 nM): -8.93%
percent inhibition of viability ([12]; 250 nM): 6.1%
percent inhibition of viability ([12]; 2500 nM): 10.3%
percent inhibition of viability ([13]; 0.25 nM): -4.3%
percent inhibition of viability ([13]; 2.5 nM): -1.23%
percent inhibition of viability ([13]; 25 nM): 0.06%
percent inhibition of viability ([13]; 250 nM): 3.89%
percent inhibition of viability ([13]; 2500 nM): 11.4%
percent inhibition of viability ([14]; 0.25 nM): -7.64%
percent inhibition of viability ([14]; 2.5 nM): -5.69%
percent inhibition of viability ([14]; 25 nM): -6.05%
percent inhibition of viability ([14]; 250 nM): 0.32%
percent inhibition of viability ([14]; 2500 nM): 2.93%
drug sensitivity score [15]: 1.85
drug sensitivity score [16]: 0.82
drug sensitivity score [17]: 0
drug sensitivity score [18]: 2.35
drug sensitivity score [19]: 0
drug sensitivity score [20]: 0.74
drug sensitivity score [21]: 0.18
drug sensitivity score [22]: 0.2
drug sensitivity score [23]: 3.22
drug sensitivity score [24]: 0.26
drug sensitivity score [25]: 0
drug sensitivity score [26]: 0.03
drug sensitivity score [27]: 0.14
drug sensitivity score [28]: 0
